Data taken from patent publication US20230054194A1, “Methods of Treating Cancer” (ARIAGEN, INC., priority 2018, published 2023).

Legend:
Pan02 = Pan02 subcutaneous syngeneic pancreatic cancer mouse model (Study 3), tumor growth inhibition; type: in vivo, mouse (C57BL/6); details: for TGI(%) / Tumor size (Mean ± SEM): Pan02 model, i.p., ARI compounds 160 mg/kg QD × 28 doses, Anti-PD-1 10 BIW × 8 doses, study end day Day 32; for anti-tumor potency of anti-PD-1 antibody combined with the compound, compared to the antibody alone: Pan02 syngeneic pancreatic cancer model
Procedure: (§1) In this example, the in vivo anti-tumor efficacy of ARI-001, ARI-002, ARI-003, and ARI-143 and their combinations with an anti-PD-1 antibody was evaluated using a panel of twelve subcutaneous syngeneic mouse tumor models.
(§2) Eleven subcutaneous syngeneic mouse tumor models were generated by innoculating female BALB/C or C57BL/6 mice with cancer cells at their right lower or right front flank followed by randomization as detailed in Table 4 below.
(§3) A solution of a rat monoclonal anti-mouse PD-1 antibody (isotype IgG2a, κ) at a concentration of 6.61 mg/ml was obtained from BioXcell (InVivoMAb anti-mouse PD-1 (CD279), Clone RMP1-14, Cat #BE0146)) and store at 4° C. The antibody solution was diluted with PBS to obtain a 1 mg/ml dosing solution.
(§4) ARI-001, ARI-002, and ARI-003 powder was stored at −20° C. The powder of each compound was dissolved in DMSO to obtain dosing solutions at 106.7, 80, and 53.33 mg/ml for administration to mice at 160, 120, and 80 mg/kg, respectively. ARI-143 was similarly prepared.
(§5) Twelve studies using the twelve subcutaneous syngeneic mouse tumor models were performed. In each study, 80 mice were enrolled and randomly allocated to eight different study groups, with 10 mice in each study group. The mean tumor size at randomization was approximately 80-120 mm^3 (around 100 mm^3). Randomization was performed based on “Matched distribution” randomization method (StudyDirector™ software, version 3.1.399.19). […] All the drugs and vehicle controls were injected to the mice intraperitoneally.
(§6) After tumor cell inoculation, the animals were checked daily for morbidity and mortality. At the time of routine monitoring, the animals were checked for any effects of tumor growth and treatments on behavior such as mobility, food and water consumption, body weight gain/loss (body weights were measured twice or three times per week after randomization), and any other abnormalities. Mortality and observed clinical signs were recorded for individual animals. Tumor volumes were measured twice or three times weekly after randomization in two dimensions using a caliper, and the volume was expressed in mm^3 using the formula: […]
(§7) where V is tumor volume, L is tumor length (the longest tumor dimension) and W is tumor width (the longest tumor dimension perpendicular to L).
(§8) The study was terminated when the mean tumor volume (MTV) in the vehicle group reached a value of 2,000 mm^3. Tumor growth inhibition (TGI) is an indication of antitumor activity, and expressed as: […]
(§9) where T and C are the MTV (or weight) of the treated and control groups, respectively, on a given day. Statistical analysis of the difference in MTV among the groups was conducted using the data collected on the day when the MTV of the vehicle group reached the humane endpoints, so that TGI could be derived for all or most mice enrolled in the study.
(§10) Statistical analysis of differences in MTV among the groups was conducted by Independent-Samples T Test using the data collected. All data were analyzed with SPSS (Statistical Product and Service Solutions) version 18.0 (IBM, Armonk, N.Y., U.S.). P-values were rounded to three decimal places, with the exception that raw P-values less than 0.001 were stated as P<0.001. All tests were two-sided. P<0.05 was considered to be statistically significant.
FIG. 62 is a graph showing the mean tumor volume on different study days in the study groups as indicated according to Study 3 (Pan02). The study end day was Day 32.

CT26 = test: CT-26 subcutaneous syngeneic colon cancer mouse model (Study 4), tumor growth inhibition; type: in vivo, mouse (BALB/C); details: for TGI(%) / Tumor size (Mean ± SEM): CT-26 model, i.p., ARI compounds 160 mg/kg QD × 15 doses, Anti-PD-1 10 BIW × 5 doses, study end day Day 23
Procedure: as §1, §2, §3, §4, §5, §6, §7, §8, §9, §10
FIG. 63 is a graph showing the mean tumor volume on different study days in the study groups as indicated according to Study 4 (CT-26). The study end day was Day 23.

Renca = Renca subcutaneous syngeneic kidney cancer mouse model (Study 8), tumor growth inhibition; type: in vivo, mouse (BALB/C); details: for Tumor size / TGI(%): Renca model, study end day Day 28; for Tumor size: Mean ± SEM, in mm³; for anti-tumor potency of anti-PD-1 antibody combined with the compound, compared to the antibody alone: Renca syngeneic kidney cancer model
Procedure: as §1, §2, §3, §4, §5, §6, §7, §8, §9, §10
FIG. 67 is a graph showing the mean tumor volume on different study days in the study groups as indicated according to Study 8 (Renca). The study end day was Day 28.

LL/2 = LL/2 subcutaneous syngeneic lung cancer mouse model (Study 6), tumor growth inhibition; type: in vivo, mouse (C57BL/6); details: for Tumor size / TGI(%): LL/2 model, study end day Day 32; for Tumor size: Mean ± SEM, in mm³; for anti-tumor potency of anti-PD-1 antibody combined with the compound, compared to the antibody alone or the vehicle: LL/2 syngeneic lung cancer model
Procedure: as §1, §2, §3, §4, §5, §6, §7, §8, §9, §10
FIG. 65 is a graph showing the mean tumor volume on different study days in the study groups as indicated according to Study 6 (LL/2). The study end day was Day 32.

RM-1 = RM-1 subcutaneous syngeneic prostate cancer mouse model (Study 7), tumor growth inhibition; type: in vivo, mouse (C57BL/6); details: for Tumor size / TGI(%): RM-1 model, study end day Day 19; for Tumor size: Mean ± SEM, in mm³
Procedure: as §1, §2, §3, §4, §5, §6, §7, §8, §9, §10
FIG. 66 is a graph showing the mean tumor volume on different study days in the study groups as indicated according to Study 7 (RM-1). The study end day was Day 19.

MC38 = MC38 subcutaneous syngeneic colon cancer mouse model (Study 1), tumor growth inhibition; type: in vivo, mouse (C57BL/6); details: for TGI(%) / Tumor size (Mean ± SEM): MC38 model, i.p., ARI compounds 160 mg/kg QD × 17 doses, Anti-PD-1 10 BIW × 5 doses, study end day Day 26
Procedure: as §1, §2, §3, §4, §5, §6, §7, §8, §9, §10
FIG. 60 is a graph showing the mean tumor volume on different study days in the study groups as indicated according to Study 1 (MC38). The study end day was Day 26.

Hepa1-6 = Hepa1-6 subcutaneous syngeneic liver cancer mouse model (Study 9), tumor growth inhibition; type: in vivo, mouse (C57BL/6); details: for Tumor size / TGI(%): Hepa1-6 model, study end day Day 26; for Tumor size: Mean ± SEM, in mm³
Procedure: as §1, §2, §3, §4, §5, §6, §7, §8, §9, §10
FIG. 68 is a graph showing the mean tumor volume on different study days in the study groups as indicated according to Study 9 (Hepal-6). The study end day was Day 26.

B16F10 = B16F10 subcutaneous syngeneic melanoma mouse model (Study 10), tumor growth inhibition; type: in vivo, mouse (C57BL/6); details: for Tumor size / TGI(%): B16F10 model, study end day Day 19; for Tumor size: Mean ± SEM, in mm³
Procedure: as §1, §2, §3, §4, §5, §6, §7, §8, §9, §10
FIG. 69 is a graph showing the mean tumor volume on different study days in the study groups as indicated according to Study 10 (B16F10). The study end day was Day 19.

[1] = RM-1 syngeneic prostate cancer model
[2] = MC38 syngeneic colon cancer model

| SMILES | TGI(%) (Pan02) | Tumor size (Mean ± SEM) (Pan02) [mm^3] | anti-tumor potency of anti-PD-1 antibody combined with the compound, compared to the antibody alone (Pan02) | TGI(%) (CT26) | Tumor size (Mean ± SEM) (CT26) [mm^3] | Tumor size (Renca) | TGI(%) (Renca) | anti-tumor potency of anti-PD-1 antibody combined with the compound, compared to the antibody alone (Renca) | Tumor size (LL/2) | TGI(%) (LL/2) | anti-tumor potency of anti-PD-1 antibody combined with the compound, compared to the antibody alone or the vehicle (LL/2) | Tumor size (RM-1) | TGI(%) (RM-1) | anti-tumor potency of anti-PD-1 antibody combined with the compound, compared to the antibody alone (RM-1; [1]) | TGI(%) (MC38) | Tumor size (Mean ± SEM) (MC38) [mm^3] | anti-tumor potency of anti-PD-1 antibody combined with the compound, compared to the antibody alone or the vehicle (MC38; [2]) | Tumor size (Hepa1-6) | TGI(%) (Hepa1-6) | Tumor size (B16F10) | further results |
| --- | --- | --- | --- | --- | --- | --- | --- | --- | --- | --- | --- | --- | --- | --- | --- | --- | --- | --- | --- | --- | --- |
| COC(=O)c1csc(C(=O)c2c[nH]c3ccccc23)n1 [ARI-001] | 60 | 357.19 ± 232.32 | statistically significant increase | 56 | 1015.32 ± 114.50 | 1367.52 ± 118.53 | 36 | statistically significant increase | 881.1 ± 93.59 | 60 | statistically significant increase | 1732.55 ± 162.92 | 41 | statistically significant increase | 37 | 1624.33 ± 148.56 | statistically significant increase | 1174.25 ± 229.74 | 27 | 2089.97 ± 201.33 | anti-tumor potency of the compound combined with anti-PD-1 antibody, compared to being used alone (RM-1; [1]): statistically significant increase; anti-tumor potency of the compound combined with anti-PD-1 antibody, compared to being used alone (MC38; [2]): statistically significant increase; anti-tumor potency of the compound combined with anti-PD-1 antibody, compared to being used alone (Hepa1-6; Hepa1-6 syngeneic liver cancer model): statistically significant increase; TGI(%) (B16F10): 29% |
| CCC(=O)c1csc(C(=O)c2c[nH]c3ccccc23)n1 [ARI-002] | 66 | 308.02 ± 177.67 | statistically significant increase | 51 | 1112.29 ± 124.36 | 1101.99 ± 92.71 | 49 | statistically significant increase | 837.75 ± 117.58 | 62 | statistically significant increase | 1744.11 ± 144.25 | 41 | statistically significant increase | 45 | 1419.94 ± 141.48 | statistically significant increase | 1018.26 ± 232.72 | 37 | 1994.41 ± 180.33 | anti-tumor potency of anti-PD-1 antibody combined with the compound, compared to the antibody alone (CT26; CT-26 syngeneic colon cancer model): statistically significant increase; TGI(%) (B16F10): 32%; anti-tumor potency of anti-PD-1 antibody combined with the compound, compared to the antibody alone or the vehicle (B16F10; B16F10 syngeneic melanoma model): statistically significant increase |
